Reference: paper PMC7011873, “LC-MS–MS and GC-MS analyses of biologically active extracts and fractions from Tunisian Juniperus phoenice leaves” (Pharmaceutical Biology, 2016)

What was measured:
[1] = DPPH radical-scavenging effect assay; settings: 30 min incubation at room temperature, absorbance at 517 nm
Procedure: DPPH (1,1-diphenyl-2-picrylhydrazyl) radical-scavenging effect was evaluated following the procedure described in a previous study (Feki et al. [2005]). Various concentrations of extracts and fractions (5 μL) dissolved in methanol were added to 5 mL of a 0.004% methanol solution of DPPH. After a 30 min incubation period at room temperature, the absorbance was read against a blank at 517 nm. Inhibition of free radical, DPPH, in percent (I%) was calculated as follows: I% = (Ablank-Asample/Ablank)×100 where Ablank is the absorbance of the control reaction (containing all reagents except the studied sample) and Asample is the absorbance of the studied sample. Extract concentration providing 50% inhibition (IC50) was calculated from the graph plotted of inhibition percentage against extract concentration. The synthetic antioxidant reagents BHT and vitamin E were used as positive control and all tests were carried out in triplicate.

[2] = target: T1, porcine pancreatic α-amylase (PPA) (Sus scrofa, UniProt P00690); assay: α-Amylase inhibition assay by CNPG3 method; assay type: biochemical
T1 construct: purchased Sigma-Aldrich (St. Louis, MO)
T1 sequence (P00690 16-511): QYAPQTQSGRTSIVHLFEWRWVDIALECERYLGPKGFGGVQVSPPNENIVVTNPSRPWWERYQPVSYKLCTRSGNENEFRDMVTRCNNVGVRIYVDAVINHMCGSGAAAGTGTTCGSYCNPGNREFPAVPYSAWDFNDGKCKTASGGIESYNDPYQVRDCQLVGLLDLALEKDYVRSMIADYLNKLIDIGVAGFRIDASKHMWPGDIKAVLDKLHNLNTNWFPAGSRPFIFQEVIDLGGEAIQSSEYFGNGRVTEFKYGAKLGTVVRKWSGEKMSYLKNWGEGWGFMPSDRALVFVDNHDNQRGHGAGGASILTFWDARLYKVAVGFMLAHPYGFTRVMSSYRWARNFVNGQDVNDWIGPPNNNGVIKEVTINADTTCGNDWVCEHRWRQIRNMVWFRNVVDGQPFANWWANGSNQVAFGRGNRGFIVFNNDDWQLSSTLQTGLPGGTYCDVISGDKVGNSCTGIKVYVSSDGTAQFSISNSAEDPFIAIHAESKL
Procedure: The studied sample was dissolved in DMSO to give concentrations of 50, 100, and 200 mg/mL. The enzyme solution was prepared by mixing α-amylase in 100 mL of 40 mM phosphate buffer, pH 6.9. The assays were measured by mixing 80 mL of the studied sample, 20 mL of α-amylase solution, and 1 mL of 2-chloro-4-nitrophenol-α-D-maltotrioside (CNPG3). The mixture was incubated at 37 °C for 5 min. The absorbance was measured at 405 nm spectrophotometrically (Jenway 6405 UV/Visible, Staffordshire, UK). […] Percentage inhibition was calculated by the following expression and all tests were carried out in triplicate: PI = [(AbsorbanceControl-AbsorbanceTest)/AbsorbanceControl] × 100

α-glucosidase = test system: α-glucosidase; parameters: method as in Kim et al. ([2000]); settings: ref Kim et al. ([2000]); cited from earlier work

Compound | DPPH IC50 [1] [µg/mL] | IC50 [2] [µM] | inhibitory activity against α-glucosidase (α-glucosidase)
O=c1cc(-c2ccc(O)c(-c3c(O)cc(O)c4c(=O)cc(-c5ccc(O)cc5)oc34)c2)oc2cc(O)cc(O)c12 [Amentoflavone] | 14.1 ± 0.4 | 37.9 | relatively important inhibitory activity
Cc1cc(C(C)(C)C)c(O)c(C(C)(C)C)c1 [BHT, butylate hydroxytoluene, reference compound] | 18.1 ± 0.2 |  | 
